Assay results reported in US8828696B2, “Use of Penicillin G Procaine as a selective antimicrobial agent in the production of alcohol by fermentation” (Lallemand Specialites, Inc, priority 2008, dated 2014).

Test system: Saccharomyces cerevisiae yeast
Experiment: Laboratory fermentation trial: formation of alcohol and lactic acid (HPLC)
Type: cell-based
Experimental: A study was conducted to determine the degree of impact of the fermentation antimicrobial Penicillin G Procaine and Penicillin G potassium during alcohol production by fermentation. The antimicrobial impact was inferred by conducting a series of fermentations and measuring if the above said antibiotics interfered with the cell growth and the fermentation function of Saccharomyces cerevisiae yeast used in the fermentation phase. This study provided analysis of what impact, if any, the Penicillin G Procaine or Penicillin G Potassium has on the yeast during lab scale fermentations, specifically BioFerm® XR yeast from North American Bioproducts Corporation (NABC). This study observed the ability of yeast to replicate and ferment a corn mash substrate with and without the presence of Penicillin G Procaine or Penicillin G Potassium. This study was set up in a series of fermentation vessels. All antibiotic concentrations were tested in triplicate. Cell counts were done on one flask for each treatment at 12, 24, 36 and 48 hours and testing of the fermentation reactions by HPLC was also performed at 12, 24, 36 and 48 hours. The experiment was set as follows: 3. Fermentations were set up using 31% solids corn mash using saccharifying enzymes and the following procedure: A. Yeast Conditioning: • 1. Add 2 g yeast to 10 ml sterile water for each 3 flasks to test, (14 g yeast to 70 ml water) into a sterile 250 ml flask and place in water bath set to 100° F. • 2. Incubate at 100° F. for 30 minutes with occasional mixing. • 3. Remove flasks from water bath and divide suspension between the all flasks for the trial. B. Fermentation Procedure • 1. To prepared mash, add the following. • a. Add 0.58 g urea/liter mash and mix. • b. Add 0.2 ml GA per liter and mix. • 2. Remove sample for background HPLC testing. • 3. Add antibiotic solution to labeled sterile 250 ml flasks. • 4. Add hydrated yeast suspension to mash and mix well. • 5. Add sterile stir bar to each flask and add about 150 ml mash into each 250 ml flask for a total of 21 flasks. • 6. Cover each flask with a gas trap in a sterilized stopper. • 7. Place in a 33° C. water bath with continuous mixing at 280 rpm at 75% power. • 8. Remove sample at 12 hr interval to perform cell count, viability and budding. • 9. Incubate sample up to 48 hours, enough time for complete fermentation • 10. Collect samples at the following times for cell counts and HPLC testing: 12 hours; 24 hours; 36 hours and 48 hours The proper functioning of the yeast is often attributed to the higher efficiency with which it can convert the sugars formed in a fermentation process to the desired alcohol. Also the number of yeast cells in a fermentation mix is an important factor as it will be entropically favored to convert the available sugar molecules to ethanol and carbon dioxide. The sugar in the fermentation mix apart from being converted to ethanol is also used by the yeast for its metabolism and growth and by the concerned “industry normal” Lactobacillus fermentum bacteria converting the sugar to lactic acid.

| Compound | % Lactic Acid (5 ppm, 12 hours) [%] | % wt EtOH (5 ppm, 12 hours) [% wt] | % Lactic Acid (5 ppm, 24 hours) [%] | % wt EtOH (5 ppm, 24 hours) [% wt] | % Lactic Acid (5 ppm, 36 hours) [%] | % wt EtOH (5 ppm, 36 hours) [% wt] | % Lactic Acid (5 ppm, 48 hours) [%] | % wt EtOH (5 ppm, 48 hours) [% wt] | % Lactic Acid (15 ppm, 12 hours) [%] | % wt EtOH (15 ppm, 12 hours) [% wt] | % Lactic Acid (15 ppm, 24 hours) [%] | % wt EtOH (15 ppm, 24 hours) [% wt] | % Lactic Acid (15 ppm, 36 hours) [%] | % wt EtOH (15 ppm, 36 hours) [% wt] | % Lactic Acid (15 ppm, 48 hours) [%] | % wt EtOH (15 ppm, 48 hours) [% wt] | % Lactic Acid (30 ppm, 12 hours) [%] | % wt EtOH (30 ppm, 12 hours) [% wt] | % Lactic Acid (30 ppm, 24 hours) [%] | % wt EtOH (30 ppm, 24 hours) [% wt] | further results |
| --- | --- | --- | --- | --- | --- | --- | --- | --- | --- | --- | --- | --- | --- | --- | --- | --- | --- | --- | --- | --- | --- |
| CC1(C)S[C@@H]2[C@H](NC(=O)Cc3ccccc3)C(=O)N2[C@H]1C(=O)[O-].[K+] [Penicillin G Potassium] | 0.083 | 6.16 | 0.100 | 9.12 | 0.108 | 11.12 | 0.104 | 11.89 | 0.081 | 6.05 | 0.100 | 9.15 | 0.105 | 11.05 | 0.100 | 11.92 | 0.082 | 6.07 | 0.096 | 9.13 | % Lactic Acid (30 ppm, 36 hours): 0.106%; % wt EtOH (30 ppm, 36 hours): 11.12 % wt; % Lactic Acid (30 ppm, 48 hours): 0.101%; % wt EtOH (30 ppm, 48 hours): 11.83 % wt |
| CC1(C)S[C@@H]2[C@H](NC(=O)Cc3ccccc3)C(=O)N2[C@H]1C(=O)O.CCN(CC)CCOC(=O)c1ccc(N)cc1 [Penicillin G Procaine] | 0.082 | 6.21 | 0.098 | 9.24 | 0.108 | 11.14 | 0.104 | 11.94 | 0.085 | 6.16 | 0.099 | 9.13 | 0.106 | 11.13 | 0.099 | 11.98 | 0.081 | 6.34 | 0.098 | 9.16 | % Lactic Acid (30 ppm, 36 hours): 0.103%; % wt EtOH (30 ppm, 36 hours): 11.18 % wt; % Lactic Acid (30 ppm, 48 hours): 0.100%; % wt EtOH (30 ppm, 48 hours): 11.91 % wt |
